Assay results published in patent US5206223A, “Method for inhibiting heparanase activity” (Yeda Research and Development Co. Ltd., priority 1986, dated 1993).

What was measured:
[1] = rat, in vivo, 10 mg/kg
rheumatoid arthritis = assay: Treatment of patients with rheumatoid arthritis; type: in vivo, human; details: about 300-500 units daily for 1 month, three patients
From the text: As DTH reactions to self antigens are involved in autoimmune diseases, we have begun to test low dose heparin (about 300-500 units daily) in patients with rheumatoid arthritis.

DTH skin response = details: human, in vivo
DTH reaction = assay: In situ DTH: I-LNC injected directly into the ears; type: in vivo, mice; details: heparin 5 u.g, I-LNC intradermally into ears, 24 h
Method: If inhibition of heparanase and heparanase-dependent traffic is the major mechanism by which low dose heparin suppresses DTH, then one might be able to bypass the inhibition of DTH by bypassing the need for vascular traffic of sensitized T lymphocytes. Accordingly we treated recipient mice with an inhibitory dose (5 μg) of heparin, and then injected the donor I-LNC directly into the ears, rather than intravenously. Table 7 illustrates that putting the sensitized lymphocytes in situ bypassed the inhibitory effect on the DTH of 5 μg of heparin. Thus low dose heparin treatment appeared to inhibit DTH only when the DTH-mediat lymphocytes had to make their way to the site of the antigen by way of the circulation.
I-LNC were obtained from BALB/c mice sensitized to OX 5 days earlier. The I-LNC were centrifuged, resuspended in RPMI medium and injected intradermally (3×10^6 cells/20 μ/l) into the dorsal surface of the ears of naive recipient mice. The ears were challenged with OX immediately after cell transfer. The magnitude of DTH ear swelling was determined 24 h later.

[2] = test system: experimental autoimmune encephalomyelitis (EAE); assay: Experimental autoimmune encephalomyelitis (EAE) produced by anti-BP T lymphocytes; type: in vivo, Lewis rats; details: for Day of onset of EAE / Duration of EAE / % incidence of EAE / Clinical score of EAE: 0.1 mg/kg daily; for % incidence of EAE: None 100; for Clinical score of EAE: scale 1-4, None 3.0
From the text: EAE is an experimental autoimmune disease with some features reminiscent of multiple sclerosis in humans. The disease is caused by T lymphocytes immunized to the basic protein (BP) of the central nervous system myelin. To test the effect of heparins on the ability of T lymphocytes to cause autoimmune disease, we used T lymphocytes sensitized against BP, either as T cell lines (Cohen, I. R. Experimental autoimmune encephalomyelitis: Pathogenesis and prevention. In: Immunoregulatory Processes in Multiple Sclerosis and Experimental Allergic Encephalomyelitis. A. A. Vandenbark and J. C. M. Raus, eds. Elsevier Biomedical Res. Amsterdam. 7:91-125 (1985)) or as populations of lymph node cells from BP immunized rats.
EAE was produced by inoculating Lewis rats with a T cell line of anti-BP T lymphocytes (10^6 cells) with anti-BP primed lymph node cells (10^7 cells) intravenously (Cohen, I. R. Experimental autoimmune encephalomyelitis: Pathogenesis and prevention. In: Immunoregulatory Processes in Multiple Sclerosis and Experimental Allergic Encephalomyelitis. A. A. Vandenbark and J. C. M. Raus, eds. Elsevier Biomedical Res. Amsterdam. 7:91-125 (1985)) One day before inoculation and daily for 10 days, the rats received either saline or the heparins.

In the case of heparin, the “Anti-coagulant effect (prothrombin time)” value [1] is reported as “increase in the prothrombin time”, the “Clinical improvement of severe rheumatoid arthritis” value (rheumatoid arthritis) is reported as “all 3 were improved” and the “Effect on the DTH response (FIG. 9)” value (DTH skin response) is reported as “did not have a significant inhibitory effect”. For the same substance, the Extent of induration (DTH skin response) was “decreased similarly”, the “Mean diameter of erythema to mumps during treatment” value (DTH skin response) was 13.6 mm and the “Mean diameter of erythema to tetanus toxoid during treatment” value (DTH skin response) was 16.8 mm. For the same substance, the “Reversibility of the effect on the DTH response (FIG. 9)” value (DTH skin response) was “transient”, the “Volunteers with significantly decreased DTH response to mumps” value (DTH skin response; sc) was 11/12 and the “Volunteers with significantly decreased DTH response to tetanus” value (DTH skin response; sc) was 10/12. The Ear swelling (DTH reaction; OX challenge no, no heparin 9 ± 1.0) was 8 ± 1.0 ×10^-4 inch, the Ear swelling (DTH reaction; OX challenge yes, no heparin 22 ± 3.4) was 20.4 ± 1.6 ×10^-4 inch and the “EAE clinical score (FIG. 3)” value ([2]; 0.02 mg daily s.c. (0.1 mg/kg), from 1 day before T lymphocyte inoculation) was “inhibits EAE”. For the same substance, the “Day of onset of EAE” value ([2]; B: T cell line, None 5.0) was 6.5, the “Duration of EAE” value ([2]; B: T cell line, None 5.5) was 3.6 days and the “% incidence of EAE” value ([2]; B: T cell line) was 20%. For the same substance, the “Clinical score of EAE” value ([2]; B: T cell line) was 1.0, the “Day of onset of EAE” value ([2]; D: primed lymph node cells, None 4.0) was 6.3 and the “Duration of EAE” value ([2]; D: primed lymph node cells, None 5.3) was 4.0 days. The “% incidence of EAE” value ([2]; D: primed lymph node cells) was 75% and the “Clinical score of EAE” value ([2]; D: primed lymph node cells) was 1.5.
